“Also recorded” adds a separate entry of the source.
Legend:
[1] = approved treatments for AD; cited from earlier work
[2] = tested on: cultured brain endothelial cells; test: IL-1β and TNFα expression in brain endothelial cells treated with TGF-β, ELISA and western blot; assay type: cell-based; details: vs untreated endothelial cells
From the text: Cerebrovascular TGF-β contributes to inflammation in the AD brain. TGF-β plays a central role in the response of the brain to injury and is increased in the brain in AD. In this study, we determined whether expression of TGF-β was abnormal in the microvasculature in AD and whether TGF-β affected vascular production of pro-inflammatory cytokines, IL-1β and TNFα. Results from western blot analysis and ELISA indicated a higher level of TGF-β in AD vessels compared to controls. To determine whether TGF-β affects vascular release of inflammatory factors, cultured brain endothelial cells were treated with TGF-β and levels of IL-1β and TNFα determined. […] Studies have shown that TGF-β mediated signaling is critical to controlling the “angiogenic switch”.

Rats [3] = test: Intracerebroventricular thrombin infusion in rats, radial eight-arm maze and neuropathology; assay type: in vivo, rat
Protocol: Thrombin, a mediator of neurotoxicity and memory impairment. Thrombin has been found in neuritic plaques in AD. Also, traumatic brain injury, where neurons are exposed to high thrombin levels is associated with an increased incidence of AD. Our objective was to determine the effects of thrombin administered in vivo on cognitive function and neuropathology. Rats were trained using a radial eight-arm maze and then thrombin (25 or 100 nM, […], 28 days) or vehicle was delivered via intra cerebroventricular infusion. […] Thrombin-induced changes in cognitive function and ventricular enlargement were inhibited by hirudin.

thrombin = thrombin (Homo sapiens, UniProt P00734); test: ApoE4 fragment generation by endothelial cell conditioned media, western blot; assay type: biochemical; details: conditioned medium incubated with apoE4 for 24 h
Protocol: Injured endothelial cells release thrombin and generate neurotoxic apolipoprotein E fragments. The objective of this study was to determine if injured brain endothelial cells could be a source of thrombin and neurotoxic apoE fragments. Brain endothelial cells were injured by oxidant and/or inflammatory stress. This was accomplished by incubating cultured endothelial cells with either, sodium nitroprusside (SNP), inflammatory cocktail (LPS, […], IL-6, IFN-γ, TNFα) or both for 24 h. The conditioned medium was then (a) analyzed for thrombin using a chromogenic thrombin activity assay, (b) incubated with apoE4 for 24 h and then analyzed by western blot for detection of apoE4 fragments, or (c) incubated with apoE4 and added to neuronal cultures for 24 h. […] This pattern was consistent with that observed using purified thrombin and was inhibited by the thrombin inhibitor hiruidin.

Rats [4] = test: Intracerebroventricular thrombin infusion in rats, apolipoprotein-E levels; assay type: in vivo, rat; details: thrombin 100 nM, 0.25 microl/hr, 28 days, i.c.v.; vs vehicle, p<0.001
From the text: Chronic thrombin exposure results in an increase in apolipoprotein-E levels. Studies have shown that individuals with both a history of traumatic brain injury and inheritance of apolipoprotein E-4 (ApoE4) allele are associated with a poor neurologic outcome and an increased risk for Alzheimer's disease. We assessed the hypothesis that thrombin released during brain injury causes an increase in apolipoprotein-E levels and such increase in the levels of apolipoprotein-E4 isoform may have amyloidogenic effects. Rats received either thrombin (100 nM, 0.25 microl/hr, 28 days) or vehicle via intracerebroventricular infusion. […] Such increase in Apolipoprotein-E4 isoform facilitates beta-amyloid deposition and cognitive deficits (Reference, item # 9).

[5] = tested on: cultured brain endothelial cells; test: TIMP expression in cultured brain endothelial cells; assay type: cell-based
From the text: Angiogenic proteins are expressed by brain blood vessels in AD. Data are emerging to support the idea that mediators of angiogenesis are found in the AD brain. The objective of this study is to compare the expression of the angiogenic mediator's vascular endothelial growth factor (VEGF), angiopoietin, and matrix metalloproteinases (MMPs) in the microcirculation of AD patients and age-matched controls. […] AD-derived microvessels also release higher levels of MMP-2 and MMP-9 compared to controls. […] In this regard we find high levels of the tissue inhibitor of matrix metalloproteinases-1 (TIMP-1) in AD, but not control vessels.

[6] = tested on: Rat neuronal cortical cell cultures; details: thrombin 100 nM or SNP 10 μM, 24 h
[7] = tested on: cultured brain endothelial cells; test: HIF1-α expression in cultured brain endothelial cells; assay type: cell-based
From the text: Thrombin and inflammatory proteins are elevated in Alzheimer's disease microvessels: Implications for disease pathogenesis. […] The objective of this study is to determine whether levels of neurotoxic (thrombin) and inflammatory proteins (IL-8; integrins αvβ3 and αvβ5) are altered in microvessels isolated from AD patients compared to levels in vessels obtained from non-demented age-matched controls. We also evaluate expression, in AD and control microvessels, of the transcription factor hypoxiainducible factor 1-α (HIF1-α), which regulates pro-inflammatory gene expression, and the regulation of HIF1-α expression by thrombin in cultured brain endothelial cells.

[8] = tested on: AD transgenic mouse APPSWE 2576; test: Radial arm maze, AD transgenic mice treated with Sunitinib malate; assay type: in vivo; details: Sunitinib malate 40 mg/kg daily in diet; vs untreated AD mice receiving vehicle; p<0.05
Endothelial cells [9] = test: Menadione-induced MMP-9 release from endothelial cells, indirect ELISA; assay type: cell-based
Endothelial cells [10] = test: Menadione-mediated TNF-α release from endothelial cells, indirect ELISA; assay type: cell-based; details: 500 nM Sunitinib malate 4 h prior to (Pre), simultaneously (Co) or after (Post) 4 h menadione 25 μM
[11] = tested on: brain-derived endothelial cells (EC150); test: MMP-9 release from brain endothelial cells, indirect ELISA; assay type: cell-based; details: 0-500 nM Sunitinib malate, 4 h; p<0.001 vs cells without drug
[12] = In vivo cognition with acetaminophen; details: in vivo work
[13] = tested on: rat brain endothelial cells; test: Cell viability (MTT) of brain endothelial cells challenged with menadione; details: acetaminophen pretreatment, then 25 μM menadione 2-3 h; p<0.001 vs cells without acetaminophen
Protocol: Cell viability was determined with MTT assay. Number of viable cells in untreated cells (control) was defined as 100%. Data are mean±SD of 3 separate experiments.

Rats [14] = test: Infusion of human apolipoprotein-E4 into rats; assay type: in vivo, rat; details: 0.6 ng/hr, i.c.v., 56 days
[15] = rats, thrombin intra cerebroventricular infusion
[16] = 100 nM thrombin, 0.25 μg/h, 28 days, intra cerebroventricular infusion

## CC12CC3CC(C)(C1)CC(N)(C3)C2 [Memantine]
[1]
  Side Effects: Headache, constipation.

## TGF-β
[2]
  endothelial expression of IL-1β and TNFα: robust endothelial expression of these factors

## hirudin
Rats [3]; [15]
  thrombin-induced changes in cognitive function: inhibited
  thrombin-induced ventricular enlargement: inhibited
thrombin
  generation of apoE4 fragments (20-29 kDa) by endothelial cell conditioned media: inhibited

## thrombin
Rats [3]; [16]
  cognitive function: cognitive impairments including deficits in reference memory and an increase in task latency
  neuropathology: enlargement of cerebral ventricles, an increased number of TUNEL-positive cells, astrogliosis, and an increase in the immunoreactivity for phosphorylated neurofilament, and apolipoprotein-E fragments
Rats [4]
  apolipoprotein-E levels in hippocampus: increased apolipoprotein-E levels in hippocampus
[5]
  TIMP-1 expression: up regulation of TIMP-1
[6]
  cyclin D1 mRNA expression: increase in cyclin D1 expression
  neuronal apoptosis (nucleosome ELISA): evoke neuronal cell death
[7]
  HIF1-alpha expression: increased expression of HIF1-alpha

## CCN(CC)CCNC(=O)c1c(C)[nH]c(/C=C2\C(=O)Nc3ccc(F)cc32)c1C [Sunitinib malate, Butanedioic acid, hydroxy-, (2S)-, compound with N[2-(diethylamino)ethyl]-5-[(Z)-(5-fluoro-1,2-dihydro-2-oxo-3H-indol-3-ylidine)methyl]-2,4-dimethyl-1H-pyrrole-3-carboxamide (1:1)]
[8]
  cognitive performance: total number of arm entries to complete the 8 arm radial arm maze: progressively require fewer arm entries to complete an 8 arm radial arm maze; also recorded: perform significantly (p<0.05) better than AD mice not receiving the drug
Endothelial cells [9]; 500 nM Sunitinib malate 4 h prior to (Pre), simultaneously (Co) or after (Post) 4 h menadione 25 μM
  menadione-induced release of MMP-9: decreased release of both MMP-9; also recorded: significantly decreased release of MMP-9
Endothelial cells [10]
  menadione-mediated release of TNF-α: decreased release of both MMP-9 (FIG. 4) and TNFα; also recorded: decreased menadione-mediated release of TNF-α
[11]
  release of matrix metalloproteinase-9 (MMP-9): significantly decreased release of matrix metalloproteinase-9 (MMP-9)

## CC(=O)Nc1ccc(O)cc1 [acetaminophen, 4′-hydroxyacetanilide]
[12]
  cognition: improved cognition
[13]
  cell survival (MTT): significant increase in cell survival; also recorded: Cell survival increases significantly

## CC1=CC(=O)c2ccccc2C1=O [menadione]
Endothelial cells [9]; brain endothelial cells exposed to menadione
  release of MMP-9 and TNFα: increased release of both MMP-9 and the inflammatory cytokine TNFα

## ApoE4: human apolipoprotein-E4 isoform infused i.c.v. into rats
Rats [14]
  beta-amyloid deposition and GFAP-positive astrocytes: beta-amyloid deposition and increased the number of GFAP-positive astrocytes
  spatial memory: significant spatial memory deficits

Source: patent publication US20100099731A1, “Use of Endothelial Interrupters in the Treatment of Neurodegenerative Diseases” (Texas Tech University System, priority 2008, published 2010)
